We go through one compound from US20100261796A1, “Use of Novel Compounds for IBD Treatment” (Ferring B.V., priority 2005, published 2010).

One assay deals with TNBS-induced colitis. As to the kind of experiment: TNBS colitis induction model. The assay is classed as in vivo, C57Bl/6 mice. The procedure: Animals were housed ten per cage and had free access to standard mouse chow and tap water. For colitis induction, C57Bl/6 mice were anesthetized for 90-120 minutes and received an intra-rectal administration of TNBS (40 μL, 150 mg/kg; provided by Sigma-Aldrich, FR) dissolved in a 1:1 mixture of 0.9% NaCl with 100% ethanol. Control mice received a 1:1 mixture of 0.9% NaCl with 100% ethanol or a saline solution using the same technique. Animals were sacrificed 5 days after TNBS administration. The anti-inflammatory effects of compound 17 were tested by administering the compound once daily by subcutaneous injection, starting one day before colitis induction. Macroscopic, histology and biologic assessments of colitis were performed blindly by two investigators.
The colon of each mouse was examined under a dissecting microscope (magnification, ×5) to evaluate the macroscopic lesions according to the established so-called Wallace criteria. The Wallace score rates macroscopic lesions on a scale from 0 to 10 based on features reflecting inflammation, such as hyperemia, thickening of the bowel, and extent of ulceration (Wallace, J. L. et al. Gastroenterology 96(1):29-36 (1989)). A colon specimen located 2 cm above the anal canal was cut into three parts, one of which was fixed in 4% paraformaldehyde and embedded in paraffin. Sections stained with May-Grunwald-Giemsa were examined blindly by two investigators and scored according to the so-called Ameho criteria (Ameho, C. K. et al. Gut 41(4):487-493 (1997)). This grading on a scale from 0 to 6 takes into account the degree of inflammation infiltrate, the presence of erosion, ulceration, or necrosis, and the depth and surface extension of lesions.
Mice receiving TNBS injections had severe lesions five days after colitis induction, showing necrosis of the colon and leading to mortality in 70% of the mice. TNBS-induced colitis was characterized by hyperemia and extensive area of ulceration. These lesions were characterized by neutrophilic infiltration extending to the mucosa deep into the muscular layer. […]

The test system of another assay is DSS-induced colitis. Briefly: Dextran sulfate sodium (DSS) colitis induction model. Format: in vivo, mice. As to conditions: preventive treatment, 10^−1 mg/kg/d, 5% DSS for seven days. As for the experimental part: Mice were fed 5% DSS (molecular weight 30-40 kDa) for seven days. DSS was dissolved in sterile distilled water and given ad libitum throughout the experiment. Stool consistency, occult blood or the presence of macroscopic rectal bleeding gross were determined daily and blindly by two experiment investigators, as described previously (Hartmann et al., J Pharmacol Exp Ther., 292(1):22-30 (2000)). […] Bleeding was scored 0 point for no blood in hemoccult, 2 points for positive hemoccult, and 4 points for gross bleeding from the rectum. These scores were added, resulting in a total clinical score ranging from 0 (healthy) to 8 (maximal activity of colitis). […] For cell infiltration of inflammatory cells, rare inflammatory cells in the lamina propria were counted as 0; increased numbers of inflammatory cells, including neutrophils in the lamina propria as 1; confluence of inflammatory cells, extending into the submucosa as 2; and a score of 3 was given for transmural extension of the inflammatory cell infiltrate. For epithelial damage, absence of mucosal damage was counted as 0, discrete focal lymphoepithelial lesions were counted as 1, mucosal erosion/ulceration was counted as 2, and a score of 3 was given for extensive mucosal damage and extension through deeper structures of the bowel wall. […]

As to `NC(=O)CCCN(CCCC1CCCCC1)C(=O)Nc1ccccc1` [Compound 17, 4-[1-(3-cyclohexylpropyl)-3-phenylureido]butyramide], the “Ameho score (histology, scale 0 to 6)” value with TNBS-induced colitis (10^−1 mg/kg/d subcutaneously once daily, starting one day before colitis induction, five days after TNBS administration, untreated TNBS mice 5.3±0.15) worked out at 3.9±0.62. Besides, the “Wallace score (macroscopic lesions, scale 0 to 10)” value in the assay on TNBS-induced colitis (10^−1 mg/kg/d subcutaneously once daily, starting one day before colitis induction, five days after TNBS administration, untreated TNBS mice 7.0±0.37) worked out at 3.8±0.89. The mortality rates result in the assay on TNBS-induced colitis (10^−1 mg/kg/d subcutaneously, TNBS-induced colitis, mortality in 70% of untreated TNBS mice) is listed as “not associated with a significant improvement of mortality rates”. Also, the “scores for clinical parameters (stool consistency + bleeding, 0 to 8)” value in the assay with DSS-induced colitis (untreated 3.7±0.14, P=0.003) was 2.8±0.13. In the assay with DSS-induced colitis (untreated 5.8±0.13, P=0.001), the “histologic score (0 to 6)” value is recorded as 3.9±0.39.
